From patent US12594282B2, “Use of small molecule compounds in the treatment of diseases mediated by lung epithelial cell injury and/or vascular endothelial cell injury” (Guangzhou Cellprotek Pharmaceutical Co., Ltd., priority 2020, dated 2026)

Tests used:
[1] = system: rat vascular endothelial cells (RAOEC); assay: OGD-R injury model, LDH detection, RAOEC; type: cell-based; details: OGD 4 hours, restoration 24 hours, 1, 3, 10 μM, prophylactic (1 hour before OGD) or therapeutic (at restoration)
Procedure: HUVEC cells were cultured in modified DMEM medium containing 10% fetal bovine serum. When the cells reached about 80% confluence, the cells were digested with 0.25% trypsin, and then pipetted evenly with modified DMEM containing 10% fetal bovine serum. The cell concentration was adjusted to 1×10^5 cells/mL, and the cells were seeded at 400 uL/well in a 24-well plate, and the experiment was carried out when the cells grew to about 70% confluence. RAOEC cells were cultured in high-glucose DMEM medium containing 10% fetal bovine serum, and the seeding conditions were the same as those for HUVECs.
The hypoxia workstation was set to have an oxygen concentration of 1% (1% O2, 5% CO2, 94% N2), a temperature of 37° C., and a humidity of 85%. A sugar-free DMEM medium was placed in the hypoxia workstation for pre-hypoxia for 3 hours. The medium in the culture plate was aspirated, and the plate was washed twice with preheated sugar-free DMEM medium, and 100 uL of sugar-free DMEM medium was added to each well. […]
At the end of the experiment, 50 uL of medium was taken from each well into a 96-well plate, and then cytotoxicity was detected according to the operating instructions of the LDH detection kit. The results were calculated as follows: […]

[2] = system: HPAEpiC cells; assay: LPS+hypoxia model, LDH release, alveolar epithelial cells; type: cell-based, human
Procedure: HPAEpiC cells were cultured with alveolar epithelial cell medium. When the cells grew to about 80% confluence, the cells were digested with 0.25% trypsin, and then pipetted evenly with alveolar epithelial cell medium. The cell concentration was adjusted to 2×10^5 cells/mL, and the cells were seeded in a 24-well plate at 400 uL/well. The experiment was conducted when the cells grew to about 70% confluence.
The hypoxia workstation was set to have an oxygen concentration of 1% (1% O2, 5% CO2, 94% a temperature to 37° C., and a humidity of 85%. After the conditions in the hypoxia workstation were stable, 1 mg/mL LPS was directly added to the cells to make the final concentration of LPS […], and then the cells were cultured in the hypoxia workstation for 24 hours.
Before being subjected to the model, the cells in the drug group were pre-incubated with vehicle (20% hydroxypropyl cyclodextrin solution) or drug (the final concentration of YC-6 was 1 μM, 5 μM, 10 μM) for 1 hour, and then added with LPS, and placed in the hypoxia workstation for constructing the model, until the end of the experiment. The model control group was not treated with any drug, and the normal group was placed in a cell incubator for routine culturing. 10 μM dexamethasone was used as the drug control. Three replicates were performed for each treatment group.

[3] = system: NR4A3; assay: NR4A3/CD31 immunofluorescence of lung tissue, acute hypobaric hypoxia; type: in vivo, Macaca fascicularis
Procedure: Paraffin sections of Macaca fascicularis lung tissue, include 3 in the normal control group (normobaric normoxia, NN), 5 in the acute hypobaric hypoxia treatment group (hypobaric hypoxia, HH), and 5 in the acute hypobaric hypoxia+YC-6 treatment group (HH+YC-6).
The paraffin sections were placed in a 65° C. oven for 30 minutes, and then quickly transferred to 100% xylene for dewaxing, and then subjected to rehydration according to the regular process (100% xylene, 5 min—100% xylene, 2 min—100% xylene, 2 min—100% ethanol, 1 min—100% ethanol, 1 min—95% ethanol, 1 min—90% ethanol, 1 min—B0% ethanol, 1 min—70% ethanol, 1 min—50% ethanol, 1 min—distilled water, 1 min×3), and then EDTA antigen retrieval solution (microwave heating) was used for antigen retrieval. After the retrieval, it was naturally cooled to room temperature, and then washed three times with PBS for 5 minutes each time. The residual PBS on the tissue section was removed. A circle was drew around the tissue with an immunohistochemical pen, and then the corresponding primary antibody diluted in DAKO antibody diluent was added to the tissue to make it completely cover the tissue. The tissue section was incubated overnight in a humidified chamber at 4° C. Then it was washed 3 times with PBS for 5 minutes each time. […]

Structure (SMILES): C[C@@]12CCCC1C1C[C@@H](O)[C@]3(O)C[C@@H](O)CC[C@]3(C)C1CC2 (stereo partly drawn) [YC-6, 5α-androst-3β,5,6β-triol]
- OGD-R-induced increase in LDH release [1]: significantly reduced the OGD-R-induced increase in LDH release in a dose-dependent manner
- protective effect compared with 10 μM dexamethasone (LDH release) ([2]; 10 μM, LPS and 1% O2 for 24 hours): significantly better protective effect than dexamethasone
- damage to alveolar epithelial cells (LDH release) induced by hypoxia and LPS ([2]; 1, 5, 10 μM, 1 hour pre-incubation, 20 μg/mL LPS and 1% O2 for 24 hours): dose-dependently reduce damage to alveolar epithelial cells
- NR4A3 protein expression in lung tissue endothelial cells ([3]; NR4A3 co-localized with CD31, immunofluorescence): significantly increased the protein expression of NR4A3
- expression of vascular endothelial cell marker CD31 in lung tissue ([3]; immunofluorescence): inhibited the down-regulation of the expression of vascular endothelial cell marker CD31
